Reference: US7223795B2, “Modified peptide derivatives and methods of use thereof” (Cyclacel Limited, priority 2000, dated 2007)
Like-named read-outs stand apart in the source and are kept apart here.

How the values were obtained:
Cyp-A = Cyp-A (Homo sapiens, UniProt P62937); test: PPIase activity, α-chymotrypsin-coupled enzymatic assay; format: biochemical; details: 4° C., read-out: Kd determined by PPIase assay
Procedure: (§1) PPIase activity is assessed with the α-chymotrypsin-coupled enzymatic assay [Determination of kinetic constants for peptidyl cis-trans isomerase by an improved spectrophotometric assay (1 991); Kofron J L, Kuzmic P, Kishore V, Colon-Bonilla E and Rich D., Biochemistry 30, 6127–6134]. α-Chymotrypsin selectively hydrolyses the C-terminal p-nitroanilide bond of the substrate in the trans X-Pro conformer only. This hydrolysis releases a chromophore 4-nitroaniline, the accumulation of which is recorded by measuring the absorbance at 400 nm as a function of time. […] Substrate (stock solution of 100 mM) was dissolved in LiCl/TFE. The experiment took place at 4° C. Constant temperature was maintained within the cuvette by a Peltier (PTP-1) temperature control unit. A mini magnetic stirring system (telemoduel from Variomag)) was used for mixing the solution in the cuvette after the addition of the substrate. A Perkin Elmer UV/VIS Lambda 20 spectrophotometer was used.
The following materials were used: • Substrate: […] (Bachem AG) (N-succinyl-Ala-Ala-Pro-Phe-pnitroanilide) • Proteins: Cyp-A solution was freshly prepared before the experiment from frozen stock solution, at the appropriate concentration by dilution in buffer 50 mM Hepes, 100 mM NaCl pH=8.0. α-chymotrypsin (Sigma)
In a typical experiment 90 μl of 2.5–30 nM cyclophilin was made up to 2520 μl with buffer A in a 3 ml glass cuvette. The cuvette then was preincubated for 30 min on ice. Immediately before the assay, 300 μl of chymotrypsin solution (50 mg/ml in 10 mM HCl) was added, followed by 90 μl of a 3.7 mM stock solution of Suc-Ala-Ala-Pro-PNA in LiCl (470 mM)/TFE. The reaction progress was monitored by the absorbance change at 400 nm that accompanies the hydrolysis of the amide bond and the release of 4-nitroaniline product.

Cyp-D Wild-type = Cyp-D Wild-type (Homo sapiens, UniProt P30405); test: Fluorescence titration: interaction with Cyclophilin D; format: binding
Procedure: Fluorescence Assay: Interaction with Cyclophilin D
Further fluorescence titration studies were undertaken to investigate the interaction of selected compounds of the invention with cyclophilin D. The assay was carried out in accordance with the method described in Maurice R. Eftink and Camillo A. Ghiron, [Fluorescence Quenching Studies with Proteins, Analytical Biochemistry 114, 199–227 (1981)].

cyclophilin D = cyclophilin D (Homo sapiens, UniProt P30405); test: Rotamase activity (method of Kofron et al); format: biochemical
Procedure: as §1, with “used. […]” for “used.”

cyclophilin = cyclophilin (Homo sapiens, UniProt P62937); test: Binding studies, binding constant to cyclophilin
Cyclophilin A = Cyclophilin A (Homo sapiens, UniProt P62937); test: Fluorescence assay: interaction with Cyclophilin A (dissociation constant); format: binding; details: 20° C., read-out: Kd determined by fluorescence assay
Procedure: In each case, the binding constant was measured by means of a fluorescence assay, for example as disclosed by Husi, H. and Zurini, M. G. M. [Comparative binding studies of cyclophilins to cyclosporin-A and derivatives by fluorescence measurements, Analytical Biochemistry, 1994, 222, 251–255].
Fluorescence Assay: Interaction with Cyclophilin A
The dissociation constant (Kd) for a number of ligands has been was obtained by fluorescence measurements. Cyclophilin A has only one tryptophan, located about 8 Å from the centre of the active site making a hydrogen bond to the inhibitor cyclosporin when bound. After each addition of ligand, the portion of the protein bound is proportional to the fractional fluorescence change. Measurements were carried out using a Perkin Elmer LS50B fluorescence spectrophotometer. The experiments took place at 20° C. Constant temperature was maintained within the cuvette by a temperature control. The protein solution was equilibrated until the signal was stable. A 1.4 ml fluorescence cuvette was used (Hellma 6140F). The excitation wavelength was 280 nm and the emission wavelength was varied from 330 to 345 nm according to protein and ligand. Emission and excitation slits varied from 2.5 to 10 nm, determined by experimental parameters.
At this point the concentration of the bound ligand equals the free protein. For each ligand concentration one fluorescence value was measured, and at the same concentrations a reference emission value was taken. The difference between the two values was calculated and a new corrected value was used to determine the Kd graphically.
Cyp-A solutions of […] in 50 mMTris, 100 mM NaCl, pH=7.4 were used. Protein concentration varied according to the ligand under test.

Cyclophilin A, sequence (P62937 whole entry): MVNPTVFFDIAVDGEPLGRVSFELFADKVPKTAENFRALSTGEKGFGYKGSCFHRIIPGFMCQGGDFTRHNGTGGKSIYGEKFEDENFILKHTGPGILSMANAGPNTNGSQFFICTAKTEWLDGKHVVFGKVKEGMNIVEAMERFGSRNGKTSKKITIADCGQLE
Cyp-A, sequence (P62937 whole entry): as above
cyclophilin D, sequence (P30405 30-207): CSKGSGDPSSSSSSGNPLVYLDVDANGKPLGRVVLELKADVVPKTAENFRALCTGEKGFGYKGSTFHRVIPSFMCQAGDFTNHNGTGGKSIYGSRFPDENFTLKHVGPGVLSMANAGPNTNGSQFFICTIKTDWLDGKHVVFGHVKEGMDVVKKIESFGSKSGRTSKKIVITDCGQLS
Cyp-D Wild-type, sequence (P30405 30-207): as above
cyclophilin, sequence (P62937 whole entry): as the sequence (P62937 whole entry) above

| Kd (Cyp-A) [µM] | Kd (Cyp-D Wild-type) [µM] | Rotamase activity % Control (cyclophilin D; 50 μM) [% Control] | Rotamase activity % Control (cyclophilin D; 100 μM) [% Control] | Rotamase activity % Control (cyclophilin D; 200 μM) [% Control] | Kd (cyclophilin) [µM] | Kd (Cyclophilin A) [µM] | Kd (cyclophilin; read-out: binding constant (Kd) to cyclophilin, by way of comparison) [µM] | Structure (SMILES) |
| --- | --- | --- | --- | --- | --- | --- | --- | --- |
| 134 | – | – | – | – | – | – | – | CC1C(=O)CC(=O)CC1(C)C (racemic) [EM 4/33/1] |
| 23 | 347 | 81 | 80 | 33 | ~1 | – | – | CC(C)[C@H](NC(=O)OCc1ccccc1)C(=O)OC1=CC(=O)CC(C)(C)C1 [EM 2/34, 3-(N-benzyloxycarbonyl-L-valinyloxy)-5,5-dimethyl-2-cyclohexen-1-one] |
| – | 110 | 96 | 100 | 59 | – | > 25000 | – | COC(=O)[C@H](Cc1ccccc1)NC(=C1C(=O)CC(C)(C)CC1=O)C(NC(=O)OCc1ccccc1)C(C)C (stereo partly drawn) [EM 2/40, N-[1-(4,4-dimethyl-2,6-dioxocyclohexylidene)-2-benzyloxycarbonylamino-3-methylbutyl]phenylalanine methyl ester] |
| – | 203 | 109 | 102.5 | 61 | – | > 25000 | – | CC(C)C(NC(=O)OCc1ccccc1)C(O)=C1C(=O)CC(C)(C)CC1=O (stereo not drawn) [EM 3/11/1, 1-(4,4-dimethyl-2,6-dioxocyclohexylidene)-2-benzyloxycarbonylamino-3-methylbutanol] |
| – | 103 | 110 | 102 | 63 | – | > 25000 | – | COC(=O)[C@@H](NC1=CC(=O)CC(C)(C)C1)C(C)C [EM 3/22/1] |
| – | 154 | 83 | 72.5 | 33 | – | > 25000 | – | CC1(C)CC(=O)C=C(OC(=O)[C@H](Cc2ccccc2)NC(=O)OCc2ccccc2)C1 [EM 3/26/1/2] |
| – | 116 | 79 | 78 | 52 | – | – | – | CC(C)C[C@H](NC(=O)OCc1ccccc1)C(=O)OC1=CC(=O)CC(C)(C)C1 [EM 3/26/2/5, 3-(N-benzyloxycarbonyl-L-leucinyloxy)-5,5-dimethyl-2-cyclohexen-1-one] |
| – | – | 111 | 96 | 60 | – | – | – | COC(=O)[C@@H](NC(=O)OCc1ccccc1)C(C)C [EM 3/27] |
| – | 362 | 107 | 77.5 | 50 | – | – | – | CC(C)[C@H](NC(=O)OC(C)(C)C)C(=O)OC1=CC(=O)CC(C)(C)C1 [EM 3/29/1/1] |
| – | – | – | – | – | – | 130 | – | CC(C)COC(=O)OC1=CC(=O)CC(C)(C)C1 [EM 3/48/2/1] |
| 20 | 815 | 78 | 84.5 | 60 | – | – | – | CC(C)[C@H](NC(=O)OCc1ccccc1)C(=O)OC1=CC(=O)C(C)C(C)(C)C1 (stereo partly drawn) [EM 4/10/1] |
| – | 107 | 104 | 106.5 | 98 | – | – | – | CC1(C)CC(=O)C=C(N)C1 [EM 4/12/2] |
| – | – | – | – | – | – | 70 | – | COC(=O)N[C@H](C(=O)OC1=CC(=O)CC(C)(C)C1)C(C)C [EM 4/18/1] |
| – | – | – | – | – | – | 68 | – | CC(C)[C@H](NC(=O)OCc1ccccc1)C(=O)OC1=CC(=O)C(C)(C)C(C)(C)C1 [EM 4/21/1] |
| – | – | – | – | – | – | 45 | – | COC(=O)CC1C(=O)CC(=O)CC1(C)C (stereo not drawn) [EM 4/35/1/1] |
| – | 170 | 84 | 99 | 71 | – | – | – | CC1(C)CC(=O)CC(=O)C1Cc1ccccc1 (stereo not drawn) [EM 5/11] |
| – | – | – | – | – | – | 85 | – | CC1(C)CC(=O)CC(=O)C1C/C=C/c1ccccc1 (stereo not drawn) [EM 5/12/3] |
| – | – | – | – | – | – | – | 22000 | CC1(C)CC(=O)CC(=O)C1 [dimedone, reference compound] |
